In a melting point compilation (Tetko et al.) one finds melting point data, which are given here for 120 compounds.

A word on the melting point: it is the temperature of the solid-liquid transition.

With `O=C(O)C=Cc1ccccc1OCC1CCCCC1`, the melting point is 99 to 101 °C.
Then `Cn1cc(-c2cccc(C(=O)O)c2)cn1`, with 213 to 215 °C.
Then `CN1CCN(c2ccc(N)cc2Cl)CC1`, with 127 to 129 °C; and `CCOC(=O)CO/N=C(\C(=O)O)c1cc[nH]n1`, with 128 to 130 °C.
The value for `Cc1ccc(O)c(-c2nc3ccccc3[nH]2)c1` was 259 to 261 °C; that for `COc1cc(C=O)cc(Cl)c1O` was 162 to 166 °C; that for `O=C(NCCO)c1ccn[nH]1` was 169 to 171 °C.
Regarding `O=C(O)CNS(=O)(=O)c1ccc2c(c1)COC2`, the melting point was in the range of 219 to 221 °C.
The value for `CCOC(=O)CN1C(=O)CNC1=O` was 109 to 111 °C; that for `COc1ccc(C(N)c2cccc(S(C)(=O)=O)c2)cc1` (stereo not given) was 80 to 82 °C.
Then `C=Cc1nc(-c2cccc(Cl)c2)no1`, with 51 to 53 °C; and `CC(C)(C)NS(=O)(=O)c1ccc(Cl)c(C(=O)O)c1`, with 179 to 181 °C; and `O=C(O)COc1cc(Cl)cc(Cl)c1`, with 115 to 117 °C.
Then `O=C(O)c1cc(I)c(F)cc1F`, with 163 to 165 °C; and `O=C(O)c1csc(Nc2ccccn2)n1`, with 298 to 300 °C; and `Cc1nc(N)cc(Cl)n1`, with 191 to 193 °C.
Consider `CC(=O)NS(=O)(=O)Cl`, for which the melting point is 92 to 94 °C.
Then `CC(C)n1c(S)nc2ccccc21`, with 138 to 140 °C; and `COC(=O)c1ccc(F)c(Cl)c1F`, with 47 to 49 °C; and `Fc1ccc(Nc2nnc(S)s2)cc1`, with 185 to 187 °C.
The value for `O=C(O)c1cccc(OCC2CCCO2)c1` (stereo not given) was 86 to 88 °C; that for `CCOC(=O)c1sc2nc(CN3CCCCC3)nc(Cl)c2c1C` was 105 to 107 °C.
Then `O=C(O)c1nnn(-c2ccc(Br)cc2)c1C1CC1`, with 176 to 178 °C; and `CC(=O)c1ccc(Cl)c(Cl)c1O`, with 108 to 110 °C.
`CCN1CCN(S(=O)(=O)c2ccc(Cl)c(C(=O)O)c2)CC1` came in with a melting point of 189 to 191 °C.
The value for `CC(CC(=O)O)c1ccc(F)cc1` (stereo not given) was 64 to 66 °C; that for `COc1ccc(C(=O)c2ccccc2C(=O)O)cc1F` was 147 to 149 °C.
Regarding `CCn1c(=O)c(C(=O)CCl)c(N)n(Cc2ccccc2)c1=O`, the melting point was 115 to 117 °C.
The compound `CC(C)c1ccc(-c2cc(N)on2)cc1` came in with a melting point of 113 to 115 °C.
The compound `O=C(O)c1ccc(S(=O)(=O)Nc2cccc(Cl)c2F)o1` had a melting point of 151 to 153 °C.
The value for `Cn1c(N)c(C(=O)CC#N)c(=O)n(C)c1=O` was 260 to 262 °C.
Then `NS(=O)(=O)C1CCOC1` (stereo not given), with 85 to 87 °C; and `CN1CCCc2cc(/C=C/C(=O)O)ccc21`, with 169 to 171 °C.
Then `Cn1ccnc1C(=O)c1ccco1`, with 34 to 36 °C; and `O=C(O)CCNC(=O)c1ccco1`, with 135 to 139 °C.
The compound `COc1ccc(Br)c(S(=O)(=O)Cl)c1` displayed a melting point of 63 to 65 °C.
Then `O=C(O)c1cnn(-c2cccc(Cl)c2)c1`, with 204 to 206 °C; and `Nc1cc(Br)ccc1-n1cncn1`, with 114 to 116 °C.
Turning to `COC(=O)c1cc(C)ccc1N`, the melting point is 58 to 60 °C.
Then `CC(C)(C)OC(=O)N1CCCC(C)(C(=O)O)C1` (stereo not given), with 117 to 119 °C; and `O=S(=O)(Cl)c1cn2c(n1)CCCC2`, with 74 to 76 °C.
Then `O=C(O)c1ccc(-n2cnnn2)cc1`, with 220 to 230 °C; and `Cc1ccc(C(=O)N2CCSCC2)cc1O`, with 159 to 161 °C.
Then `CCOC1CCN(C(=O)Nc2cccc(C(=O)O)c2)CC1`, with 179 to 181 °C; and `O=C(NC1CC1)c1cc(Br)c[nH]1`, with 144 to 146 °C.
As for `CC1(c2ccco2)NC(=O)NC1=O` (stereo not given), the melting point lay within 179 to 181 °C.
The value for `COc1cccc(-c2cc(N)n(CCO)n2)c1` was 148 to 150 °C; that for `O=S(=O)(Cl)c1cnc2ccsc2c1` was 129 to 131 °C.
With `Nc1ccc(N2CCSCC2)c(Cl)c1`, the melting point lay in the range of 101 to 103 °C.
Then `O=S(=O)(Cl)c1ccc2ncccc2c1`, with 87 to 89 °C; and `CCCS(=O)(=O)Nc1cc(N)c(F)cc1F`, with 95 to 97 °C; and `CCOC(Cn1cc(C(=O)O)nn1)OCC`, with 138 to 140 °C.
As to `Nc1ccc(C2(c3ccc(N)cc3)CCCCC2)cc1`, the melting point was 110 to 112 °C.
As for `OCC1(NCCc2ccccc2)CCCC1`, the melting point is 86 to 88 °C.
In turn, `Cc1cc(C)c2c(N)c(C(=O)NN)sc2n1` registered a melting point of 245 to 247 °C.
Then `O=C(O)CCNS(=O)(=O)c1cccc(Br)c1`, with 146 to 148 °C; and `Cc1nnc2c(Cl)nccn12`, with 212 to 214 °C; and `CS(=O)(=O)c1cccc(C(=O)c2ccc(F)cc2F)c1`, with 129 to 131 °C.
The value for `Clc1cc2c(cc1Br)OCCN2` was 124 to 126 °C.
On to `CC(C)(NC(=O)c1ccccc1)C(N)=S`, for which the melting point was 165 to 167 °C.
Take `OCC1CSc2ccccc2O1` (stereo not given): the melting point lay in the range of 89 to 91 °C.
`COc1ccc2c(c1)NCCCC2` gave a melting point of 46 to 48 °C.
On to `CN1C(=O)CCC(C(=O)O)C1c1ccc(C(F)(F)F)cc1` (stereo not given), for which the melting point was 188 to 190 °C.
The compound `CC(C)(C)OC(=O)N1CCC(C(=O)O)C1` (stereo not given) had a melting point of 134 to 136 °C.
The value for `Fc1c(Br)cncc1Br` was 97 to 99 °C.
The value for `N#Cc1cccc(-c2ncn[nH]2)c1` was 144 to 146 °C; that for `CCNC(=O)Nc1cccc(N)c1` was 122 to 124 °C.
Then `CC1(C)C(=O)Nc2ccccc2N1C(=O)CCl`, with 170 to 172 °C.
In turn, `COc1cc(NC(=O)C2CCCC2)c(C(=O)O)cc1OC` showed a melting point of 193 to 195 °C.
`Cc1cc(SC(C)(C)C)ccc1N`: the melting point is 69 to 71 °C.
In turn, `COc1ccc(S(N)(=O)=O)c(C)c1C` displayed a melting point of 202 to 204 °C.
In the case of `O=S(=O)(c1cccc2cnccc12)N1CCCNCC1`, the melting point lay in the range of 146 to 148 °C.
In turn, `CC(C)C(C)(CC(=O)N1CCOCC1)C(=O)O` (stereo not given) registered a melting point of 134 to 136 °C.
Consider `FC(F)(F)Oc1cccc2c(Cl)ccnc12`, for which the melting point lay within 51 to 53 °C.
In turn, `O=[N+]([O-])c1ccc(NC2CCCC2)nc1` gave a melting point of 114 to 116 °C.
As to `COc1ccc(C2C(C(=O)O)CC(=O)N2C2CC2)cc1` (stereo not given), the melting point lay within 187 to 189 °C.
For the compound `Cc1cc(C(=O)CCl)c(C)n1-c1cccc(Cl)c1`, the melting point was 116 to 118 °C.
`Nc1ccc(Cl)nc1N` yielded a melting point of 129 to 131 °C.
`O=C(O)c1cnc(-c2ccco2)s1`: the melting point was 237 to 239 °C.
In turn, `COc1ccc(C(=O)NC(=O)CCl)cc1` gave a melting point of 160 to 162 °C.
`NC(=NO)c1cnn2cccnc12` returned a melting point of 177 to 179 °C.
`COc1ccc2c(c1)NC(=O)C2=O`: the melting point was 223 to 225 °C.
The value for `NC(CCc1ccccc1)=NO` was 40 to 42 °C; that for `CC1(c2cc(F)ccc2F)NC(=O)NC1=O` (stereo not given) was 227 to 229 °C; that for `CC(C)Cn1[nH]ccc1=NC(=O)OCC(F)(F)F` was 63 to 65 °C.
Then `NC(=O)CC1CCCCN1` (stereo not given), with 108 to 110 °C.
Then `OC(c1ccc(Br)cc1)C(F)(F)F` (stereo not given), with 50 to 52 °C; and `O=c1[nH]cnc2c(Br)cccc12`, with 317 to 319 °C.
Turning to `Cc1nn(CCCl)c(C)c1C(=O)O`, the melting point lay within 139 to 141 °C.
Then `CC1(c2ccc(N)cc2)NC(=O)NC1=O` (stereo not given), with 187 to 189 °C; and `CC(Cl)C(=O)Nc1ccc(F)c(F)c1F` (stereo not given), with 136 to 139 °C.
Then `COc1ccc(CNc2c([N+](=O)[O-])ncn2C)cc1OC`, with 196 to 198 °C; and `O=S(=O)(c1ccccc1)n1c(I)cc2cccnc21`, with 109 to 111 °C; and `CCCCc1ccc(C(=O)Nc2sccc2C(=O)O)cc1`, with 183 to 185 °C.
The compound `Nc1ccccc1CN1CCC(O)CC1` returned a melting point of 112 to 114 °C.
As for `Cc1oc(C(=O)O)cc1C(=O)CCl`, the melting point lay within 206 to 208 °C.
Then `O=C(O)c1cccc2[nH]ccc12`, with 213 to 214 °C; and `O=C(CCl)Cc1ccc(F)cc1`, with 127 to 129 °C; and `CC(C)(C)C1CCc2c(sc3nc(S)nc(S)c23)C1` (stereo not given), with 301 to 303 °C.
Then `Cn1c(=O)ccn(CC(=O)O)c1=O`, with 240 to 242 °C.
Then `COC(=O)c1cc(S(N)(=O)=O)c(F)cc1Br`, with 164 to 166 °C; and `CS(=O)(=O)OCCn1cnc2ccsc2c1=O`, with 112 to 114 °C.
For the compound `O=[N+]([O-])c1cc(NCC2CC2)ccc1S(=O)(=O)NCC1CC1`, the melting point is 132 to 134 °C.
The value for `C=CCNS(=O)(=O)C(C)(C)C` was 53 to 55 °C; that for `O=S(=O)(c1ccc2c(c1)CCCN2)N1CCCCC1` was 121 to 123 °C.
`O=C(O)Cc1ccc(N2CCCC2=O)cc1` returned a melting point of 120 to 122 °C.
Compound `O=C1NC(=O)C2(CCc3ccccc32)N1` (stereo not given) came in with a melting point of 229 to 231 °C.
Turning to `N#Cc1ccc(Oc2cccnc2)cc1`, the melting point lay in the range of 50 to 52 °C.
Compound `Cc1nc(N)c(Cl)cc1Cl` returned a melting point of 136 to 138 °C.
In the case of `O=[N+]([O-])c1ccc(S(=O)(=O)Cl)cn1`, the melting point lay in the range of 81 to 83 °C.
`O=C(O)CSc1nnc(-c2ccc3ccccc3c2)o1` displayed a melting point of 182 to 184 °C.
Then `CCOc1cccc(C(N)=S)c1`, with 118 to 120 °C; and `O=C(O)Cc1ccc(OCCOc2ccccc2)cc1`, with 169 to 171 °C; and `O=C(O)c1cc([N+](=O)[O-])cc([N+](=O)[O-])c1F`, with 204 to 206 °C.
`N=C(N)Nc1nc2ccccc2[nH]1` had a melting point of 242 to 244 °C.
The value for `CC(O)C(C)c1ccc2ccccc2n1` (stereo not given) was 69 to 71 °C.
With `Cc1ccc(-c2nnc(N)o2)s1`, the melting point fell in the range of 247 to 249 °C.
Then `Nc1ccn(-c2ncccc2Cl)n1`, with 89 to 91 °C; and `O=C(O)CC(=O)c1ccc(O)cc1`, with 89 to 91 °C.
Then `NS(=O)(=O)c1ccc(N2CCOCC2)c(C(=O)O)c1`, with 277 to 279 °C.
